ChEMBL document CHEMBL3046365, “Insecticidal Activity of Pyridalyl: Acute and Sub-Acute Symptoms in Spodoptera litura Larvae” (2004)
The source made the active and inactive calls. The calls are words filed in the database; no cut-off is given here.

Assays:
Spodoptera litura [1] = assay: Insecticidal activity against fifth-instar Spodoptera litura larvae assessed as mortality at 25 ng applied topically measured after 5 days; assay type: functional, organism-based
Spodoptera litura [2] = assay: Insecticidal activity against fifth-instar Spodoptera litura larvae assessed as mortality compound applied topically measured after 1 day; assay type: functional
Spodoptera litura [3] = assay: Acute insecticidal activity against fifth-instar Spodoptera litura larvae assessed as mortality at 200 ng applied topically measured after 3 hr; assay type: functional
Spodoptera litura [4] = assay: Insecticidal activity against fifth-instar Spodoptera litura larvae assessed as mortality compound applied topically measured after 2 days; assay type: functional
Spodoptera litura [5] = assay: Insecticidal activity against fifth-instar Spodoptera litura larvae assessed as inhibition of ecdysis at 1.56 to 25 ng applied topically measured after 5 days; assay type: functional, organism-based
Spodoptera litura [6] = assay: Acute insecticidal activity against fifth-instar Spodoptera litura larvae assessed as decrease in vigor at 50 to 400 ng applied topically; assay type: functional, organism-based
Spodoptera litura [7] = assay: Acute insecticidal activity against fifth-instar Spodoptera litura larvae assessed as mortality at 50 ng applied topically measured within 3 days; assay type: functional
Spodoptera litura [8] = assay: Acute insecticidal activity against fifth-instar Spodoptera litura larvae assessed as mortality at 400 ng applied topically measured after 1 hr; assay type: functional, organism-based
Spodoptera litura [9] = assay: Acute insecticidal activity against fifth-instar Spodoptera litura larvae assessed as decrease in body elasticity at 50 to 400 ng applied topically; assay type: functional, organism-based
Spodoptera litura [10] = assay: Acute insecticidal activity against fifth-instar Spodoptera litura larvae assessed as mortality at 400 ng applied topically measured after 2 hr; assay type: functional
Spodoptera litura [11] = assay: Acute insecticidal activity against fifth-instar Spodoptera litura larvae assessed as mortality at 100 ng applied topically measured after 6 hr; assay type: functional
Spodoptera litura [12] = assay: Insecticidal activity against fifth-instar Spodoptera litura larvae assessed as burn scar on the area where compound applied at 1.56 to 6.25 ng applied topically measured after 4 days; assay type: functional, organism-based
Spodoptera litura [13] = assay: Acute insecticidal activity against fifth-instar Spodoptera litura larvae assessed as mortality at 200 ng applied topically measured after 1 hr; assay type: functional, organism-based
Spodoptera litura [14] = assay: Insecticidal activity against fifth-instar Spodoptera litura larvae assessed as inhibition of emergence as adult at 1.56 to 25 ng applied topically; assay type: functional, organism-based
Spodoptera litura [15] = assay: Acute insecticidal activity against fifth-instar Spodoptera litura larvae assessed as decrease in mobility at 50 to 400 ng applied topically; assay type: functional, organism-based
Spodoptera litura [16] = assay: Insecticidal activity against fifth-instar Spodoptera litura larvae assessed as abnormal body shape at 1.56 to 25 ng applied topically; assay type: functional, organism-based
Spodoptera litura [17] = assay: Acute insecticidal activity against fifth-instar Spodoptera litura larvae assessed as flaccid paralysis at 50 to 400 ng applied topically; assay type: functional, organism-based
Spodoptera litura [18] = assay: Insecticidal activity against fifth-instar Spodoptera litura larvae assessed as mortality at 1.56 to 25 ng applied topically measured after 5 days; assay type: functional, organism-based
Spodoptera litura [19] = assay: Insecticidal activity against fifth-instar Spodoptera litura larvae assessed as mortality compound applied topically measured after 3 days; assay type: functional
Spodoptera litura [20] = assay: Insecticidal activity against fifth-instar Spodoptera litura larvae at 1.56 to 25 ng applied topically measured up to 1 day; assay type: functional, organism-based
Spodoptera litura [21] = assay: Acute insecticidal activity against fifth-instar Spodoptera litura larvae assessed as mortality at 50 ng applied topically measured after 6 hr; assay type: functional, organism-based

For `FC(F)(F)c1ccc(OCCCOc2c(Cl)cc(OCC=C(Cl)Cl)cc2Cl)nc1` [PYRIDALYL], the Activity (Spodoptera litura [1]) was “Active”, the LD50 (Spodoptera litura [2]) was 57.3 ng and the mortality (Spodoptera litura [3]) was 100%. For the same compound, the LD50 (Spodoptera litura [4]) was 50.1 ng, the Activity (Spodoptera litura [5]) was “Active” and the Activity (Spodoptera litura [6]) was “Active”. The mortality (Spodoptera litura [7]) was over 50%, the Activity (Spodoptera litura [8]) was “Active” and the Activity (Spodoptera litura [9]) was “Active”. For the same compound, the mortality (Spodoptera litura [10]) was 100%, the mortality (Spodoptera litura [11]) was 100% and the Activity (Spodoptera litura [12]) was “Active”. The Activity (Spodoptera litura [13]) was “Active”, the Activity (Spodoptera litura [14]) was “Active” and the Activity (Spodoptera litura [15]) was “Active”. For the same compound, the inhibition (Spodoptera litura [16]) was “Active”, the Activity (Spodoptera litura [17]) was “Active” and the inhibition (Spodoptera litura [18]) was “Active”. For the same compound, the LD50 (Spodoptera litura [19]) was 24.4 ng, the Activity (Spodoptera litura [20]) was “inactive” and the Activity (Spodoptera litura [21]) was “inactive”.
